Experimental data from patent US10828269B2, “Reducing muscle atrophy by administering astaxanthin” (FUJI CHEMICAL INDUSTRIES CO., LTD., priority 2004, dated 2020).

What was measured:
[1] = tested on: FK506 binding protein 1a; experiment: GeneChip gene expression in renal glomerulus; format: in vivo, mouse; conditions: probe 1448184_at (Table 4), 0.02% in diet, 12 weeks
Experimental: (§1) Type II diabetic female db/db mice and non-diabetic db/m were purchased from Clea Japan, Inc. Mice were bred under the conditions with a 12 hours light-dark cycle at a temperature of 21° C. to 25° C. For acclimation, mice were fed CE-2 (Clea Japan, Inc.) with free access to water for one week. The mice were divided into three groups each consisting of 8 mice (non-diabetic db/m, diabetic db/db, and astaxanthin-administered db/db) and each group was bred with feed ad libitum. Mice in astaxanthin-administered group were fed a diet in which 0.02% astaxanthin in terms of free astaxanthin was compounded with CE-2. Each group was bred for 12 weeks, and body weight, blood glucose levels, 8-OHdG levels in urine, albumin levels in urine, and kidney histopathology, were measured. Astaxanthin used here was AstaReal (registered trademark, Fuji Chemical Industry Co., Ltd.) 50F, which is oil composed of astaxanthin fatty acid ester and triglycerides and contains 5% astaxanthin in terms of free astaxanthin.
(§2) After the period of test breeding, kidney was removed and frozen at −80° C. Using an LM200 system (Olympus Corporation), the renal glomerulus was cut from kidney of mice while keeping low temperature. tRNA of renal glomerulus was extracted using tRNA extraction regent “Isogen” (produced by Nippon Gene Co., Ltd.), and then preparation of cRNA and hybridization were performed according to the Affymetrix GeneChip Eukaryotic Small Sample Target Labeling Assay Ver. II.
(§3) (1) Synthesis of first strand cDNA: 1 μL of total RNA solution and 1 of 5 μM T7-Oligo(dT) primer were mixed, heated at 70° C. for 6 minutes, and then cooled at 4° C. for 2 minutes. 3 μL of RT_Premix_1 (1.5 μL DEPC-treated water, 4 μL 5× First strand Buffer, 2 μL DTT (0.1 M), 1.5 μL dNTP Mix (10 mM), 1 μL RNase inhibitor (40 U/μL), and 2 μL Super-Script II (200 U/μL)) was added and reverse transcribed at 42° C. for 1 hour. The sample was heated at 70° C. for 10 minutes to inactivate Super Script II, and then cooled to 4° C. (2) Synthesis of second strand cDNA: 32.5 μl of SS_Premix_1 (91 μL DEPC-treated water, 30 μL 5× Second Strand Buffer, 3 μL dNTP (10 mM), 1 μL E. coli DNA ligase (10 U/μL); 4 μL E. coli DNA polymerase (10 U/μL), and 1 μL RNase H (2 U/μL)) was added to the first strand cDNA solution and allowed to react for 2 hours at 16° C. (3) To the resulting cDNA, was added 1 μL T4 DNA polymerase (5 U/μl) and allowed to react for 10 minutes at 16° C., and purified by ethanol precipitation. (4) In vitro transcription: To the dried double-stranded cDNA pellet, was added 10 μL of reagents (4 μL DEPC-treated water, 4 μL premixed NTPs, 1 μL 10× reaction buffer, and 1 μL 10× enzyme mix), and allowed to react at 37° C. in a water bath for 6 hours. (5) First cycle cRNA was purified using the RNeasy Mini Kit in accordance with the protocol in the handbook (QIAGEN). (6) Subsequently, for the amplification and labeling, the cRNA sample was mixed with random primers (0.2 μg/μL), treated at 70° C. for 10 minutes, cooled on ice for 2 minutes, 5 μL of RT_Premix_2 (5× First Strand Buffer, DTT (0.1 M), dNTP mix (10 mM), RNase inhibitor (40 U/μL), and SuperScript II (200 U/μL) was added, and allowed to react at 42° C. for 1 hour. (7) Next, Second Sstrand cDNA synthesis was carried out by adding 5 μM T7-Oligo(dT) promoter treating at 70° C. for 6 minutes, cooling at 4° C., and adding 62 μL of SS_Premix_2 (43 μL it DEPC-treated water, 15 μL 5× Second Strand Buffer, 1.5 μL dNTP mix (10 mM), and 2 μL E. coli DNA polymerase (10 U/μL)). (8) To the resulting cDNA, was treated added 1 μL of T4 DNA polymerase (5 U/μL), allowed to react at 16° C. for 10 minutes, and purified by ethanol precipitation. […]

[2] = tested on: MAD homolog 4 (Dorosophia); experiment: GeneChip gene expression in renal glomerulus; format: in vivo, mouse; conditions: probe 1422486_a_at, 0.02% in diet, 12 weeks
Experimental: as §1, §2, §3

[3] = tested on: granulin; experiment: GeneChip gene expression in renal glomerulus; format: in vivo, mouse; conditions: probe 1438629_x_at, 0.02% in diet, 12 weeks
Experimental: as §1, §2, §3

[4] = tested on: insulin like growth factor 2 receptor; experiment: GeneChip gene expression in renal glomerulus; format: in vivo, mouse; conditions: probe 1424111_at, 0.02% in diet, 12 weeks
Experimental: as §1, §2, §3

[5] = tested on: ring finger protein 128; experiment: GeneChip gene expression in renal glomerulus; format: in vivo, mouse; conditions: probe 1449036_at, 0.02% in diet, 12 weeks
Experimental: as §1, §2, §3

[6] = tested on: superoxide dismutase 1, soluble; experiment: GeneChip gene expression in renal glomerulus; format: in vivo, mouse; conditions: 0.02% in diet, 12 weeks
Experimental: as §1, §2, §3

[7] = Takahashi Jiro et al, Rinsho Iyaku 2004; cited from earlier work

## CC1=C(/C=C/C(C)=C/C=C/C(C)=C/C=C/C=C(C)/C=C/C=C(C)/C=C/C2=C(C)C(=O)C(O)CC2(C)C)C(C)(C)CC(O)C1=O (stereo not drawn) [astaxanthin, 3,3′-dihydroxy-β,β-carotene-4,4′-dione]
[1]
  gene expression relative ratio db/db(Ax):db/db: 0.66
  gene expression relative ratio db/db(Ax):db/m: 6.50
[2]
  gene expression relative ratio db/db(Ax):db/db: 1.00
  gene expression relative ratio db/db(Ax):db/m: 27.86
[3]
  gene expression relative ratio db/db(Ax):db/db: 0.19
  gene expression relative ratio db/db(Ax):db/m: 3.03
[4]
  gene expression intensity ratio db/db(Ax):db/db: 0.87
  gene expression intensity ratio db/db(Ax):db/m: 11.31
[5]
  gene expression relative ratio db/db(Ax):db/db: 0.1
  gene expression relative ratio db/db(Ax):db/m: 1.62
[6]
  gene expression relative ratio db/db(Ax):db/db: 0.23
[6]; probe 1448184_at (Table 5)
  gene expression relative ratio db/db(Ax):db/m: 4.00
[7]
  mutagenicity: has not been observed having any mutagenicity
